From patent publication US6737383B1, “Herbicidal oxadiazolidines” (priority 1999, dated 2004)

Experiments:
cocklebur = experiment: Test B pre/postemergence cocklebur; format: in vivo, Xanthium strumarium; conditions: for Cocklebur plant response rating: scale of 0 to 10 where 0 is no effect and 10 is complete control
How it was run: (§1)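 Test chemicals in a non-phytotoxic solvent mixture with surfactant were sprayed preemergence onto planted seeds and postemergence onto plants 2 to 18 cm tall (1- to 4-leaf stage). After twelve to sixteen days in a greenhouse, injury was visually rated against untreated controls from 0 (no effect) to 10 (complete control).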

pigweed = experiment: Test B pre/postemergence pigweed; format: in vivo, Amaranthus retroflexus; conditions: for Redroot pigweed plant response rating: scale of 0 to 10 where 0 is no effect and 10 is complete control
How it was run: as §1

sugar beet = experiment: Test B pre/postemergence sugar beet; format: in vivo, Beta vulgaris; conditions: for Sugarbeets plant response rating: scale of 0 to 10 where 0 is no effect and 10 is complete control
How it was run: as §1

bamyardgrass = experiment: Test B flood test barnyardgrass; format: in vivo, Echinochloa crus-galli
How it was run: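 Read-out is a visual response score from 0 (no effect) to 10 (complete control), assigned by comparison with untreated controls. Treatment was applied at the 2-leaf stage, and plants stayed in the greenhouse for twelve to sixteen days before scoring.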

Alexandergrass = experiment: Test D Alexandergrass; format: in vivo, Brachiaria plantaginea; conditions: Postemergence, 0 to 100 scale
common pursiane = experiment: Test D common purslane; format: in vivo, Portulaca oleracea; conditions: Postemergence, 0 to 100 scale
common ragweed = experiment: Test D common ragweed; format: in vivo, Ambrosia elatior; conditions: Postemergence, 0 to 100 scale
sandbur = experiment: Test D sandbur; format: in vivo, Cenchrus echinatus; conditions: Postemergence, 0 to 100 scale
Green foxtail [1] = experiment: Test D green foxtail; format: in vivo; conditions: Rate 250 g/ha; Postemergence; 0 to 100 scale
Green foxtail [2] = experiment: Test D green foxtail; format: in vivo; conditions: Postemergence, 0 to 100 scale, 0 no injury, 100 complete control
[3] = Postemergence, Rate 125 g/ha, scale 0 to 10, 0 is no effect, 10 is complete control
[4] = Preemergence, Rate 62 g/ha, scale 0 to 10 (0 no effect, 10 complete control)
[5] = Rate 500 g/ha, Postemergence, scale 0 to 10, 0 no effect, 10 complete control
[6] = Postemergence (flood test), Rate 125 g/ha, scale 0 to 10, 0 is no effect, 10 is complete control
[7] = Rate 62 g/ha, Postemergence (flood test species), scale of 0 to 10 where 0 is no effect and 10 is complete control
[8] = Rate 250 g/ha, Postemergence (flood test species), scale of 0 to 10 where 0 is no effect and 10 is complete control
[9] = Rate 16 g/ha, 0 no injury, 100 complete control
[10] = Rate 32 g/ha, 0 no injury, 100 complete control
[11] = Rate 64 g/ha, 0 no injury, 100 complete control
[12] = Rate 125 g/ha, 0 no injury, 100 complete control

COCC(C)n1c(=O)on(C(=O)N(c2ccc(F)cc2F)C(C)C)c1=O (centres unmarked) [Compound 357] was tested. Which “Plant response rating, Cocklebur” value (cocklebur; [3]) did it give?
The value was 0.

What about the “Plant response rating, Cocklebur” value (cocklebur; [4]) of the same compound?
Its value is 0.

What about the “Cocklebur plant response rating (0 to 10 scale)” value (cocklebur; Preemergence, Rate 125 g/ha) of the same compound?
The value was 0.

And the “Cocklebur plant response rating” value (cocklebur; Preemergence, Rate 250 g/ha)?
The value was 0.

And the “Cocklebur plant response rating” value (cocklebur; Preemergence, Rate 500 g/ha)?
The value was 0.

What about the “Cocklebur plant response rating” value (cocklebur; Rate 62 g/ha, Postemergence) of the same compound?
Its value is 0.

And the “Plant response rating, Cocklebur” value (cocklebur; [5])?
Its value is 2.

And the “Plant response rating, Redroot pigweed” value (pigweed; [3])?
The value was 0.

And the “Plant response rating, Redroot pigweed” value (pigweed; [4])?
The value was 7.

And the “Redroot pigweed plant response rating (0 to 10 scale)” value (pigweed; Preemergence, Rate 125 g/ha)?
Its value is 10.

What about the “Redroot pigweed plant response rating” value (pigweed; Preemergence, Rate 250 g/ha) of the same compound?
Its value is 10.

And the “Redroot pigweed plant response rating” value (pigweed; Preemergence, Rate 500 g/ha)?
Its value is 10.

What about the “Redroot pigweed plant response rating” value (pigweed; Rate 62 g/ha, Postemergence) of the same compound?
Its value is 0.

And the “Plant response rating, Redroot pigweed” value (pigweed; [5])?
The value was 8.

And the “Plant response rating, Sugarbeets” value (sugar beet; [3])?
The value was 0.

And the “Plant response rating, Sugarbeets” value (sugar beet; [4])?
Its value is 2.

And the “Sugarbeets plant response rating (0 to 10 scale)” value (sugar beet; Preemergence, Rate 125 g/ha)?
The value was 3.

And the “Sugarbeets plant response rating” value (sugar beet; Preemergence, Rate 250 g/ha)?
The value was 5.

What about the “Sugarbeets plant response rating” value (sugar beet; Preemergence, Rate 500 g/ha) of the same compound?
Its value is 6.

And the “Sugarbeets plant response rating” value (sugar beet; Rate 62 g/ha, Postemergence)?
Its value is 0.

What about the “Plant response rating, Sugarbeets” value (sugar beet; [5]) of the same compound?
Its value is 0.

And the “Plant response rating, Barnyardgrass” value (bamyardgrass; [6])?
Its value is 2.

What about the “Barnyardgrass plant response rating” value (bamyardgrass; [7]) of the same compound?
The value was 0.

What about the “Plant response rating, Barnyardgrass” value (bamyardgrass; [8]) of the same compound?
Its value is 4.

And the “Plant response rating, Barnyardgrass” value (bamyardgrass; Rate 500 g/ha, listed under Postemergence (flood test species), scale 0 to 10, 0 no effect, 10 complete control)?
Its value is 6.

What about the “Plant response rating, Alexandergrass” value (Alexandergrass; [9]) of the same compound?
The value was 0.

What about the “Plant response rating, Alexandergrass” value (Alexandergrass; [10]) of the same compound?
The value was 20.

What about the “Plant response rating, Alexandergrass” value (Alexandergrass; [11]) of the same compound?
The value was 100.

And the “Plant response rating, Alexandergrass” value (Alexandergrass; [12])?
Its value is 100.

What about the “Plant response rating, Alexandergrass” value (Alexandergrass; Rate 250 g/ha) of the same compound?
Its value is 100.

And the “Plant response rating, C. purslane” value (common pursiane; [9])?
Its value is 0.

And the “Plant response rating, C. purslane” value (common pursiane; [10])?
The value was 0.

And the “Plant response rating, C. purslane” value (common pursiane; [11])?
The value was 0.

And the “Plant response rating, C. purslane” value (common pursiane; [12])?
Its value is 0.

And the “Plant response rating, C. purslane” value (common pursiane; Rate 250 g/ha)?
The value was 0.

What about the “Plant response rating, C. ragweed” value (common ragweed; [9]) of the same compound?
The value was 0.

And the “Plant response rating, C. ragweed” value (common ragweed; [11])?
Its value is 0.

And the “Plant response rating, C. ragweed” value (common ragweed; [12])?
Its value is 0.

And the “Plant response rating, C. ragweed” value (common ragweed; Rate 250 g/ha)?
Its value is 50.

What about the “Plant response rating, Sandbur” value (sandbur; [9]) of the same compound?
Its value is 0.

What about the “Plant response rating, Sandbur” value (sandbur; [10]) of the same compound?
The value was 0.

And the “Sandbur plant response rating” value (sandbur; [11])?
Its value is 0.

And the “Sandbur plant response rating” value (sandbur; [12])?
The value was 0.

And the “Plant response rating, Sandbur” value (sandbur; Rate 250 g/ha)?
Its value is 100.

What about the “Plant response rating, Green foxtail” value (Green foxtail [1]) of the same compound?
Its value is 100.

And the “Plant response rating, Green foxtail” value (Green foxtail [2]; Rate 64 g/ha)?
Its value is 100.

What about the “Plant response rating, Green foxtail” value (Green foxtail [2]; Rate 125 g/ha) of the same compound?
Its value is 100.

With CCC(CC)n1c(=O)on(C(=O)N(c2ccc(F)cc2)C(C)C)c1=O [Compound 358] as the compound, how does the “Plant response rating, Cocklebur” value (cocklebur; [3]) read?
The value was 0.

And the “Plant response rating, Cocklebur” value (cocklebur; [4])?
Its value is 0.

And the “Cocklebur plant response rating (0 to 10 scale)” value (cocklebur; Preemergence, Rate 125 g/ha)?
The value was 0.

And the “Cocklebur plant response rating” value (cocklebur; Preemergence, Rate 250 g/ha)?
The value was 0.

And the “Cocklebur plant response rating” value (cocklebur; Preemergence, Rate 500 g/ha)?
Its value is 0.

And the “Cocklebur plant response rating” value (cocklebur; Rate 62 g/ha, Postemergence)?
Its value is 0.

What about the “Plant response rating, Cocklebur” value (cocklebur; [5]) of the same compound?
The value was 0.

What about the “Plant response rating, Redroot pigweed” value (pigweed; [3]) of the same compound?
The value was 3.

What about the “Plant response rating, Redroot pigweed” value (pigweed; [4]) of the same compound?
The value was 7.

And the “Redroot pigweed plant response rating (0 to 10 scale)” value (pigweed; Preemergence, Rate 125 g/ha)?
Its value is 9.

What about the “Redroot pigweed plant response rating” value (pigweed; Preemergence, Rate 250 g/ha) of the same compound?
Its value is 10.

What about the “Redroot pigweed plant response rating” value (pigweed; Preemergence, Rate 500 g/ha) of the same compound?
Its value is 10.

And the “Redroot pigweed plant response rating” value (pigweed; Rate 62 g/ha, Postemergence)?
Its value is 3.

And the “Plant response rating, Redroot pigweed” value (pigweed; [5])?
The value was 6.

What about the “Plant response rating, Sugarbeets” value (sugar beet; [3]) of the same compound?
The value was 0.

And the “Plant response rating, Sugarbeets” value (sugar beet; [4])?
The value was 0.

What about the “Sugarbeets plant response rating (0 to 10 scale)” value (sugar beet; Preemergence, Rate 125 g/ha) of the same compound?
The value was 1.

And the “Sugarbeets plant response rating” value (sugar beet; Preemergence, Rate 250 g/ha)?
Its value is 3.

What about the “Sugarbeets plant response rating” value (sugar beet; Preemergence, Rate 500 g/ha) of the same compound?
The value was 3.

And the “Sugarbeets plant response rating” value (sugar beet; Rate 62 g/ha, Postemergence)?
Its value is 0.

What about the “Plant response rating, Sugarbeets” value (sugar beet; [5]) of the same compound?
Its value is 4.

And the “Plant response rating, Barnyardgrass” value (bamyardgrass; [6])?
Its value is 2.

And the “Barnyardgrass plant response rating” value (bamyardgrass; [7])?
Its value is 2.

And the “Plant response rating, Barnyardgrass (0 to 10 scale, 0 is no effect, 10 is complete control)” value (bamyardgrass; Rate 62 g/ha, flood test species, Pre-emergence, visual evaluation after twelve to sixteen days)?
Its value is 0.

What about the “Barnyardgrass plant response rating” value (bamyardgrass; Rate 125 g/ha, Pre-emergence, flood test species, scale 0 to 10 where 0 is no effect and 10 is complete control) of the same compound?
Its value is 0.

And the “Plant response rating, Barnyardgrass” value (bamyardgrass; [8])?
Its value is 9.

And the “Barnyardgrass plant response rating” value (bamyardgrass; Rate 250 g/ha, Pre-emergence, flood-test species, scale 0 to 10, 0 is no effect, 10 is complete control)?
The value was 9.

And the “Barnyardgrass plant response rating” value (bamyardgrass; Rate 500 g/ha, Pre-emergence, flood test species, scale 0 to 10 (0 no effect, 10 complete control))?
Its value is 9.

And the “Plant response rating, Alexandergrass” value (Alexandergrass; [9])?
The value was 0.

And the “Plant response rating, Alexandergrass” value (Alexandergrass; [10])?
Its value is 0.

And the “Plant response rating, Alexandergrass” value (Alexandergrass; [11])?
The value was 100.

What about the “Plant response rating, Alexandergrass” value (Alexandergrass; [12]) of the same compound?
Its value is 90.

What about the “Plant response rating, Alexandergrass” value (Alexandergrass; Rate 250 g/ha) of the same compound?
The value was 100.

And the “Plant response rating, C. purslane” value (common pursiane; [9])?
The value was 0.

What about the “Plant response rating, C. purslane” value (common pursiane; [10]) of the same compound?
Its value is 0.

And the “Plant response rating, C. purslane” value (common pursiane; [11])?
The value was 0.

What about the “Plant response rating, C. purslane” value (common pursiane; [12]) of the same compound?
Its value is 0.

And the “Plant response rating, C. purslane” value (common pursiane; Rate 250 g/ha)?
Its value is 0.

And the “Plant response rating, C. ragweed” value (common ragweed; [9])?
Its value is 0.

And the “Plant response rating, C. ragweed” value (common ragweed; [10])?
Its value is 0.

And the “Plant response rating, C. ragweed” value (common ragweed; [11])?
The value was “—30”.

What about the “Plant response rating, C. ragweed” value (common ragweed; [12]) of the same compound?
The value was 70.

And the “Plant response rating, C. ragweed” value (common ragweed; Rate 250 g/ha)?
The value was 70.

What about the “Plant response rating, Sandbur” value (sandbur; [9]) of the same compound?
The value was 0.

And the “Plant response rating, Sandbur” value (sandbur; [10])?
The value was 20.

And the “Sandbur plant response rating” value (sandbur; [11])?
The value was 100.

And the “Sandbur plant response rating” value (sandbur; [12])?
The value was 100.

What about the “Plant response rating, Sandbur” value (sandbur; Rate 250 g/ha) of the same compound?
The value was 90.

What about the “Plant response rating, Green foxtail” value (Green foxtail [1]) of the same compound?
Its value is 100.

What about the “Plant response rating, Green foxtail” value (Green foxtail [2]; Rate 64 g/ha) of the same compound?
Its value is 100.

What about the “Plant response rating, Green foxtail” value (Green foxtail [2]; Rate 125 g/ha) of the same compound?
The value was 100.
